As a reminder, the IC50 is the midpoint of a concentration-inhibition curve. The EC50 is the concentration needed to bring the measured effect to its halfway point.

The values that follow come from patent US10669272B2, “Substituted naphthyridinone compounds useful as T cell activators” (BRISTOL-MYERS SQUIBB COMPANY, priority 2018, dated 2020).

Read-outs that look alike come from different tables or passages of the source.

Assay [1] concerns OT-1 CD8+ T cells with SIINFEKL-loaded MC38 tumor cells. The assay is described as follows: Murine cytotoxic T lymphocyte assay (IFN-γ, OT-1 CTL with MC38 tumor cells). The class given is cell-based, mouse. Particulars: read-out: msCTL INFg IC50. The source says:
5. Murine Cytotoxic T Lymphocyte Assay
An antigen-specific cytolytic T-cell (CTL) assay was developed to evaluate functionally the ability of DGKα and DGKζ inhibitors to enhance effector T cell mediated tumor cell killing activity. CD8+ T-cells isolated from the OT-1 transgenic mouse recognize antigen presenting cells, MC38, that present the ovalbumin derived peptide […]. Recognition of the cognate antigen initiates the cytolytic activity of the OT-1 antigen-specific CD8+ T cells.
Functional CTL cells were generated as follows: OT-1 splenocytes from 8-12 week old mice were isolated and expanded in the presence of the […] peptide at 1 μg/mL and mIL2 at 10 U/mL. After three days, fresh media with […] was added. On day 5 of the expansion, the CD8+ T cells were isolated and ready for use. Activated CTL cells may be stored frozen for 6 months. Separately, one million MC38 tumor cells were pulsed with 1 μg/mL of […]-OVA peptide for 3 hours at 37° C. The cells were washed (3×) with fresh media to remove excess peptide. Finally, CTL cells that were pretreated with DGK inhibitors for 1 hour in a 96-well U bottom plate were combined with the antigen loaded MC38 tumor cells at a 1:10 ratio. The cells were then spun at 700 rpm for 5 min and placed in an incubator overnight at 37° C. After 24 hours, the supernatant was collected for analysis of IFN-γ cytokine levels by AlphaLisa purchased from Perkin Elmer.

A further assay has as its system Human venous whole blood. The assay is described as follows: Human whole blood IFN-γ assay.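 Also: blood from healthy donors exposed to compound for 1 h before stimulation with anti-CD3 and anti-CD28 at 1 µg/mL each, IFN-γ quantified in supernatant by AlphaLISA.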 The class given is cell-based. Particulars: normalized to 3 μM reference compound with anti-CD3 plus anti-CD28 as 100% activation.
The test system of another assay is naïve human CD8 T cells. The assay is described as follows: Human CD8 T cells IFN-γ assay.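 Also: Naïve human CD8 T cells stimulated with plate-bound anti-CD3 and soluble anti-CD28, IFN-γ in supernatant quantified by AlphaLISA and converted to pg/mL.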 The assay is classed as cell-based. Particulars: normalized to 3 μM reference compound with anti-CD3 plus anti-CD28 as 100% activation, read-out: HuCD8 INFG Normalized EC50.
The next assay addresses T1, human DGKα (Homo sapiens, UniProt P23743).
T1 construct: TVMV protease cleavage site (C); Hexa-His (C); made in house; host or cells: Sf9 insect cells (baculovirus, Bac-to-Bac)
In words: DGKα LIPGLO assay (extruded liposome substrate), in vitro DGK inhibition. The assay is classed as biochemical. Particulars: liposome (LIPGLO) assay; read-out: DGKa LIPGLO IC50.

The next assay has as its target T2, human DGKζ (Homo sapiens, UniProt Q13574).
T2 construct: TVMV protease cleavage site (C); Hexa-His (C); made in house; host or cells: Sf9 insect cells (baculovirus, Bac-to-Bac)
In words: DGKζ LIPGLO assay (extruded liposome substrate), in vitro DGK inhibition. The class given is biochemical. Particulars: liposome (LIPGLO) assay; read-out: DGKz LIPGLO IC50.

The mark [2] stands for this setting: Homo sapiens, 24 h, read-out: INFg Whole Blood Normalized Agonist EC50, human whole blood.

T2 sequence (Q13574 with tags, fused parts or gaps isoform Q13574-4): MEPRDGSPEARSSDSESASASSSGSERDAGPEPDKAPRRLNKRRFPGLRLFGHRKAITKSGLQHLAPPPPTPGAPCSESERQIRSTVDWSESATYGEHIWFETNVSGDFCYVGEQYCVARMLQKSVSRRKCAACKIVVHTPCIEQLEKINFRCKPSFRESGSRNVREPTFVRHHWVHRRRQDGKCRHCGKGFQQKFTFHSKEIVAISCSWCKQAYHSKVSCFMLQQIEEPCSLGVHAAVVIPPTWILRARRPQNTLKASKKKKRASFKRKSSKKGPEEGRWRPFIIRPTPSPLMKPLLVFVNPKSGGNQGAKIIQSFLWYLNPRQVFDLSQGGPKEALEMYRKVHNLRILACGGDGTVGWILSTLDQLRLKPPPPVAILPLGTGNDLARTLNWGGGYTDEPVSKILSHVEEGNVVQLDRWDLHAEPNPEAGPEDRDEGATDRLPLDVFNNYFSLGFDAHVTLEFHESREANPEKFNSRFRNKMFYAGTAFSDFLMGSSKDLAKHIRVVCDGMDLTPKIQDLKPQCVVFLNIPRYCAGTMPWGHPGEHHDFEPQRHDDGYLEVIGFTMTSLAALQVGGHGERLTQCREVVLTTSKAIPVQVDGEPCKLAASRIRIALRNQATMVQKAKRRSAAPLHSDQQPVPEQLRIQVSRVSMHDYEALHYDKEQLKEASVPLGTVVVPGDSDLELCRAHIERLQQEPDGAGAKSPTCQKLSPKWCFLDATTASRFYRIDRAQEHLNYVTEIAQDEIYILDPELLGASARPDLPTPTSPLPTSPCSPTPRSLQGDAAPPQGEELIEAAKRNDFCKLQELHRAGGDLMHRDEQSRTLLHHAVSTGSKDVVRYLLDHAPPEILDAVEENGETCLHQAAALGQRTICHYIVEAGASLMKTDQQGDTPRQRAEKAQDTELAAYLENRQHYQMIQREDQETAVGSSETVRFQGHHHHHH
T1 sequence (P23743 with tags, fused parts or gaps): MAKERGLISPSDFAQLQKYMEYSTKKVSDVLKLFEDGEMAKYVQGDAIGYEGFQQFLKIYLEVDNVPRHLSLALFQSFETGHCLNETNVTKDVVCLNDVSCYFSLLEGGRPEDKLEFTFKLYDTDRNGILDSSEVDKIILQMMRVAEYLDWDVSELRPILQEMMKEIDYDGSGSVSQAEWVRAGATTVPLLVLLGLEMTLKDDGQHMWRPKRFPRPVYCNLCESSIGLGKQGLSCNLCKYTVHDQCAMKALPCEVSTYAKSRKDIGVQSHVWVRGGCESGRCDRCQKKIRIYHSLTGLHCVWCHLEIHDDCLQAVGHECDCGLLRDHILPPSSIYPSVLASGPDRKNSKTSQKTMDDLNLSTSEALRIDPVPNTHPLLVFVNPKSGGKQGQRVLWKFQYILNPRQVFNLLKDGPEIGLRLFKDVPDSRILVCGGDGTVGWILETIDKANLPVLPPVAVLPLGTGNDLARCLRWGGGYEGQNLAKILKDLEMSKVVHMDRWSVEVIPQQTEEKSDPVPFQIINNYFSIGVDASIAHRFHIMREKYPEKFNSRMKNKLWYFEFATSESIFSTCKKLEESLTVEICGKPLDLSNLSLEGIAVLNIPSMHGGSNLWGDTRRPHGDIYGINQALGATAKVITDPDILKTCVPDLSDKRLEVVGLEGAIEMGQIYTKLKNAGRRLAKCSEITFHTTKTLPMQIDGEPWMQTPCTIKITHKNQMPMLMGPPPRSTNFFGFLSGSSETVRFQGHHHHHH
Protocol for Human venous whole blood: Human Whole Blood IFN-γ Assay
Human venous whole blood (22.5 μL per well), obtained from healthy donors, was pre-treated with compounds for one hour at 37° C. in a humidified 95% air/5% CO2 incubator. The blood was stimulated with 2.5 μL anti-human CD3 and anti-CD28 mAb at a final concentration of 1 μg/mL each for 24 hours at 37° C. IFN-γ in the supernatants was measured using AlphLISA kit (Cat # AL217).

`C[C@@H]1CN(c2cc(=O)n(C)c3ccc(C#N)nc23)[C@@H](C)CN1C(c1ccc(F)cc1)c1ccccc1F` (single isomer, unassigned) [Example 304]: in assay [1], the IC50 is 0.047 µM. The EC50 was found to be 0.49 µM with Human venous whole blood (setting [2]) and 0.0085 µM in the assay on naïve human CD8 T cells.
On to `CC(C)OC(=O)C1CN(c2c(C#N)c(=O)n(C)c3ccc(C#N)nc23)CCN1C(c1ccc(F)cc1)c1ccc(F)cc1` (single isomer, unassigned) [Example 64, Isopropyl 1-(bis(4-fluorophenyl)methyl)-4-(3,6-dicyano-1-methyl-2-oxo-1,2-dihydro-1,5-naphthyridin-4-yl)piperazine-2-carboxylate], for which the IC50 is 8.8 µM in assay [1] (Mus musculus, MC-38); 240 µM at human DGKα; 240 µM on human DGKζ. The EC50 in the assay with naïve human CD8 T cells was determined as 10 µM.
On to `COC(=O)C1CN(c2c(C#N)c(=O)n(C)c3ccc(C#N)nc23)CCN1C(c1ccc(F)cc1)c1ccc(F)cc1` (single isomer, unassigned) [Example 51, methyl 1-(bis(4-fluorophenyl)methyl)-4-(3,6-dicyano-1-methyl-2-oxo-1,2-dihydro-1,5-naphthyridin-4-yl)piperazine-2-carboxylate], for which the IC50 turned out to be 1.9 µM in assay [1] and 2.1 µM on human DGKζ. The EC50 stood at 1.6 µM in the assay on Human venous whole blood (human whole blood, read-out: INFg Whole Blood Normalized Agonist EC50) and 0.51 µM with naïve human CD8 T cells.
Consider `COC(=O)C1CN(C(c2ccc(F)cc2)c2ccc(F)cc2)CCN1c1cc(=O)n(C)c2ccc(C#N)nc12` (single isomer, unassigned) [Example 136, Methyl 4-(bis(4-fluorophenyl)methyl)-1-(6-cyano-1-methyl-2-oxo-1,2-dihydro-1,5-naphthyridin-4-yl)piperazine-2-carboxylate], for which the IC50 was 0.52 µM in assay [1], 25 µM on human DGKα and 39 µM on human DGKζ. For the same compound, the EC50 in the assay on naïve human CD8 T cells (Homo sapiens, T-cell, 20 h) was found to be 0.95 µM.
Take `Cn1c(=O)cc(N2CCN(C(c3ccc(F)cc3)c3ccc(F)cc3)CC2C(=O)NC2CC2)c2nc(C#N)ccc21` (single isomer, unassigned) [Example 139, 4-(bis(4-fluorophenyl)methyl)-1-(6-cyano-1-methyl-2-oxo-1,2-dihydro-1,5-naphthyridin-4-yl)-N-cyclopropylpiperazine-2-carboxamide]: the half-inhibitory concentration (IC50) in assay [1] (Mus musculus, MC-38) is 10 µM; on human DGKα it was 240 µM; at human DGKζ it was 110 µM. The EC50 in the assay with naïve human CD8 T cells was 50 µM.
Consider `C[C@H]1CN(C(c2ccc(F)cc2)c2ccc(F)cc2)CCN1c1cc(=O)n(C)c2ccc(C#N)nc12` [Example 134, (S)-8-(4-(bis(4-fluorophenyl)methyl)-2-methylpiperazin-1-yl)-5-methyl-6-oxo-5,6-dihydro-1,5-naphthyridine-2-carbonitrile], for which the IC50 in assay [1] (Mus musculus, MC-38) came out at 0.39 µM; on human DGKα, 13 µM; at human DGKζ, 4.9 µM. For the same compound, the concentration for a half-maximal effect (EC50) with naïve human CD8 T cells (Homo sapiens, T-cell, 20 h) came to 0.59 µM.
`C[C@@H]1CN(c2cc(=O)n(C)c3ccc(C#N)nc23)[C@@H](C)CN1C(c1ccc(F)cc1)c1ccccc1F` (single isomer, unassigned) [Example 305]: the IC50 in assay [1] was 0.023 µM. The concentration for a half-maximal effect (EC50) in the assay with Human venous whole blood (read-out: INFg Whole Blood Normalized Agonist EC50, human whole blood) was found to be 0.68 µM; in the assay with naïve human CD8 T cells, 0.026 µM.
For `C[C@@H]1CN(c2c(Cl)c(=O)n(C)c3ccc(C#N)nc23)CCN1C(c1ccc(F)cc1)c1ccc(F)cc1` [Example 29, (R)-8-(4-(bis(4-fluorophenyl)methyl)-3-methylpiperazin-1-yl)-7-chloro-5-methyl-6-oxo-5,6-dihydro-1,5-naphthyridine-2-carbonitrile], in assay [1] (Mus musculus, MC-38), the IC50 worked out at 0.037 µM. Besides, the EC50 in the assay with Human venous whole blood (setting [2]) turned out to be 1.3 µM; with naïve human CD8 T cells (Homo sapiens, T-cell, 20 h), 0.018 µM.
Regarding `Cn1c(=O)c(C#N)c(N2CCN(C(c3ccc(F)cc3)c3ccc(F)cc3)C(C(=O)O)C2)c2nc(C#N)ccc21` (single isomer, unassigned) [Example 54, 1-(bis(4-fluorophenyl)methyl)-4-(3,6-dicyano-1-methyl-2-oxo-1,2-dihydro-1,5-naphthyridin-4-yl)piperazine-2-carboxylic acid], the IC50 was 10 µM in assay [1] (Mus musculus, MC-38); 200 µM at human DGKα; 120 µM at human DGKζ. Further, the EC50 in the assay with naïve human CD8 T cells came to 10 µM.
Consider `Cn1c(=O)c(C#N)c(N2CCN(C(c3ccc(F)cc3)c3ccc(F)cc3)C(CO)C2)c2nc(C#N)ccc21` (single isomer, unassigned) [Example 15, 8-(4-(bis(4-fluorophenyl)methyl)-3-(hydroxymethyl)piperazin-1-yl)-5-methyl-6-oxo-5,6-dihydro-1,5-naphthyridine-2,7-dicarbonitrile], for which the IC50 in assay [1] (Mus musculus, MC-38) is 0.91 µM; at human DGKα, 5.1 µM; at human DGKζ it was 6.6 µM. Also, the EC50 with naïve human CD8 T cells was found to be 10 µM.
Consider `Cn1c(=O)c(C#N)c(N2CCN(C(c3ccc(F)cc3)c3ccc(F)cc3)C(CO)C2)c2nc(C#N)ccc21` (single isomer, unassigned) [Example 16, 8-(4-(bis(4-fluorophenyl)methyl)-3-(hydroxymethyl)piperazin-1-yl)-5-methyl-6-oxo-5,6-dihydro-1,5-naphthyridine-2,7-dicarbonitrile], for which the half-maximal inhibitory concentration (IC50) in assay [1] stood at 1.4 µM; at human DGKα, 7.5 µM; at human DGKζ, 12 µM. For the same compound, in the assay with naïve human CD8 T cells, the EC50 worked out at 0.53 µM.
Turning to `CC(C)OC(=O)C1CN(c2c(C#N)c(=O)n(C)c3ccc(C#N)nc23)CCN1C(c1ccc(F)cc1)c1ccc(F)cc1` (single isomer, unassigned) [Example 65, Isopropyl 1-(bis(4-fluorophenyl)methyl)-4-(3,6-dicyano-1-methyl-2-oxo-1,2-dihydro-1,5-naphthyridin-4-yl)piperazine-2-carboxylate], the IC50 in assay [1] turned out to be 8.4 µM; on human DGKα, 240 µM. Moreover, the half-maximal effective concentration (EC50) in the assay with Human venous whole blood (Homo sapiens, 24 h, human whole blood, read-out: INFg Whole Blood Normalized Agonist EC50) was determined as 16 µM; in the assay with naïve human CD8 T cells it was 1.7 µM.
With `Cn1c(=O)c(C#N)c(N2CCN(C(c3ccc(F)cc3)c3ccc(F)cc3)C(C(=O)NC3CC3)C2)c2nc(C#N)ccc21` (single isomer, unassigned) [Example 60, 1-(bis(4-fluorophenyl)methyl)-N-cyclopropyl-4-(3,6-dicyano-1-methyl-2-oxo-1,2-dihydro-1,5-naphthyridin-4-yl)piperazine-2-carboxamide], the IC50 was 10 µM in assay [1] (Mus musculus, MC-38); 240 µM at human DGKα; 72 µM on human DGKζ. Moreover, the EC50 in the assay with naïve human CD8 T cells (Homo sapiens, T-cell, 20 h) was 10 µM.
For the compound `CC(C)OC(=O)C1CN(c2cc(=O)n(C)c3ccc(C#N)nc23)CCN1C(c1ccc(F)cc1)c1ccc(F)cc1` (single isomer, unassigned) [Example 63, Isopropyl 1-(bis(4-fluorophenyl)methyl)-4-(6-cyano-1-methyl-2-oxo-1,2-dihydro-1,5-naphthyridin-4-yl)piperazine-2-carboxylate], the IC50 in assay [1] turned out to be 1.6 µM; at human DGKα, 240 µM; on human DGKζ, 240 µM. In addition, in the assay with naïve human CD8 T cells, the EC50 is 0.21 µM.
For the compound `C[C@@H]1CN(C(c2ccc(F)cc2)c2ccc(F)cc2)[C@@H](C)CN1c1cc(=O)n(C)c2ccc(C#N)nc12` [Example 4, 8-((2R,5S)-4-(bis(4-fluorophenyl)methyl)-2,5-dimethylpiperazin-1-yl)-5-methyl-6-oxo-5,6-dihydro-1,5-naphthyridine-2-carbonitrile], the IC50 in assay [1] (Mus musculus, MC-38) was determined as 0.32 µM. The EC50 was 3.5 µM in the assay with Human venous whole blood (setting [2]) and 0.3 µM with naïve human CD8 T cells (Homo sapiens, T-cell, 20 h).
With `C[C@@H]1CN(c2cc(=O)n(C)c3ccc(C#N)nc23)[C@@H](C)CN1C(c1ccccc1)c1ccc(F)cc1` (single isomer, unassigned) [Example 183], the IC50 in assay [1] (Mus musculus, MC-38) was determined as 0.033 µM. Besides, the EC50 stood at 0.7 µM in the assay on Human venous whole blood (Homo sapiens, human whole blood, read-out: INFg Whole Blood Normalized Agonist EC50) and 0.039 µM in the assay on naïve human CD8 T cells (Homo sapiens, T-cell, 20 h).
Regarding `C[C@H]1CN(C(c2ccc(F)cc2)c2ccc(F)cc2)[C@@H](C)CN1c1cc(=O)n(C)c2ccc(C#N)nc12` [Example 133, 8-((2S,5S)-4-(bis(4-fluorophenyl)methyl)-2,5-dimethylpiperazin-1-yl)-5-methyl-6-oxo-5,6-dihydro-1,5-naphthyridine-2-carbonitrile], the IC50 in assay [1] (Mus musculus, MC-38) stood at 1.1 µM. Further, the concentration for a half-maximal effect (EC50) in the assay on Human venous whole blood (setting [2]) worked out at 5.8 µM; with naïve human CD8 T cells (Homo sapiens, T-cell, 20 h), 0.84 µM.
